# Source: ChEMBL document CHEMBL4602617, “Discovery and optimization of heteroaryl piperazines as potent and selective PI3Kδ inhibitors” (Bioorg Med Chem Lett, 2020)
# Legend:
# [1] = Oral bioavailability in dog at 0.5 mg/kg; assay type: ADME, organism-based, Canis lupus familiaris; details: in vivo
# [2] = molecular target: Cytochrome P450 3A4 (Homo sapiens, UniProt P08684); assay: Inhibition of CYP3A4 (unknown origin); assay type: ADME
# [3] = molecular target: Vasopressin V1b receptor (Homo sapiens) (UniProt P47901); assay: Displacement of [3H]-(Arg8)-Vasopressin from recombinant full length human V1B receptor expressed in CHO-K1 cells at 10 uM after 120 mins by radiometric scintillation analysis relative to control; assay type: cell-based
# Chain of Vasopressin V1b receptor (Homo sapiens) (P47901 whole entry): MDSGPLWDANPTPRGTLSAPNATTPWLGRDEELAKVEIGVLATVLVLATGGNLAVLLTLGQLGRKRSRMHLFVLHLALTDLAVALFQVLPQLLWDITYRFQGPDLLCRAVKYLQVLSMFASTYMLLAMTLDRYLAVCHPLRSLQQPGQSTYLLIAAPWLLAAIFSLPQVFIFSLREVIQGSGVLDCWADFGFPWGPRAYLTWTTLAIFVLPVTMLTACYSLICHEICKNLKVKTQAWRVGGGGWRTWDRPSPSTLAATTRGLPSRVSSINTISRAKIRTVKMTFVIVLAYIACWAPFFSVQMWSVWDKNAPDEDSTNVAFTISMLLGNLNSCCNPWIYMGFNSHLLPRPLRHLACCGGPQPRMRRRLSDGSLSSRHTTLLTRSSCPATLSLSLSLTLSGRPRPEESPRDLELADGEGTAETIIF
# [4] = molecular target: 5-hydroxytryptamine receptor 2B (Homo sapiens) (UniProt P41595); assay: Displacement of [3H]lysergic acid diethylamide from full length human recombinant 5HT2B receptor expressed in CHOK-1 cells at 10 uM measured after 60 mins by radiometric scintillation analysis relative to control; assay type: cell-based
# Chain of 5-hydroxytryptamine receptor 2B (Homo sapiens) (P41595 whole entry): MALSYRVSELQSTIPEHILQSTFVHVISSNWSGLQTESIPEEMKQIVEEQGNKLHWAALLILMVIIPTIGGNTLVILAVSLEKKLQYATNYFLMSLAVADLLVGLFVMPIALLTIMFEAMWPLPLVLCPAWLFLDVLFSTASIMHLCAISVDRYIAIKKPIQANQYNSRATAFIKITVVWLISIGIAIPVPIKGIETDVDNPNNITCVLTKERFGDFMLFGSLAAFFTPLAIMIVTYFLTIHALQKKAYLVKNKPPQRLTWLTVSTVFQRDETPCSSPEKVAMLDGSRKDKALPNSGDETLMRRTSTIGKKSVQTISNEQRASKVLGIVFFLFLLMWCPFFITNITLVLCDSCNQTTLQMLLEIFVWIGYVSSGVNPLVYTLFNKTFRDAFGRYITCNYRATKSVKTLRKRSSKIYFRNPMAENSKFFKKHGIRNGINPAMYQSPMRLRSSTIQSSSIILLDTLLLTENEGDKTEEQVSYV
# [5] = species on record: Homo sapiens; assay: Inhibition of human nicotinic acetylcholine receptor at 10 uM relative to control
# [6] = molecular target: Cysteinyl leukotriene receptor 2 (Homo sapiens) (UniProt Q9NS75); assay: Inhibition of human CYSLt2 receptor at 10 uM relative to control
# Chain of Cysteinyl leukotriene receptor 2 (Homo sapiens) (Q9NS75 whole entry): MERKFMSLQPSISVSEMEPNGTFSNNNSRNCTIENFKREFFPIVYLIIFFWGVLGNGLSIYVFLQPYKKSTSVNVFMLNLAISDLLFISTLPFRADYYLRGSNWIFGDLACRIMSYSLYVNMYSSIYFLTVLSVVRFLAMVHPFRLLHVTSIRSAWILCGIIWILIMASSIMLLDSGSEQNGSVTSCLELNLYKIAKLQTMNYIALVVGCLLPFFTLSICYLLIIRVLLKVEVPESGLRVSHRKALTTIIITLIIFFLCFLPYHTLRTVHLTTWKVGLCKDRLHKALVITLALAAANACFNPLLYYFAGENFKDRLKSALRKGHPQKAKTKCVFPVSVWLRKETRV
# [7] = molecular target: Glutamate NMDA receptor (Rattus norvegicus) (UniProt P35439+Q00959+Q00960+Q00961+Q62645+Q8VHN2+Q9R1M7); assay: Displacement of [3H]Ifenprodil from in glutamate NMDA receptor polyamine binding site in Wistar rat cerebral cortex at 10 uM incubated for 120 mins by radiometric scintillation analysis relative to control
# [8] = molecular target: Beta-1 adrenergic receptor (Homo sapiens) (UniProt P08588); assay: Displacement of [125I]cyanopindolol from full-length recombinant human beta1 adrenergic receptor expressed in CHOK1 cells at 10 uM measured after 120 mins by scintillation counting method relative to control; assay type: cell-based; details: CHO-K1
# [9] = molecular target: Dual specificity protein kinase CLK3 (Homo sapiens, UniProt P49761); assay: Inhibition of recombinant full length human GST-tagged CLK3 expressed in baculovirus expression system using serine/threonine-18 peptide as substrate incubated for 60 mins in presence of ATP by Z'-LYTE assay
# Chain of Dual specificity protein kinase CLK3 (P49761 whole entry, canonical isoform): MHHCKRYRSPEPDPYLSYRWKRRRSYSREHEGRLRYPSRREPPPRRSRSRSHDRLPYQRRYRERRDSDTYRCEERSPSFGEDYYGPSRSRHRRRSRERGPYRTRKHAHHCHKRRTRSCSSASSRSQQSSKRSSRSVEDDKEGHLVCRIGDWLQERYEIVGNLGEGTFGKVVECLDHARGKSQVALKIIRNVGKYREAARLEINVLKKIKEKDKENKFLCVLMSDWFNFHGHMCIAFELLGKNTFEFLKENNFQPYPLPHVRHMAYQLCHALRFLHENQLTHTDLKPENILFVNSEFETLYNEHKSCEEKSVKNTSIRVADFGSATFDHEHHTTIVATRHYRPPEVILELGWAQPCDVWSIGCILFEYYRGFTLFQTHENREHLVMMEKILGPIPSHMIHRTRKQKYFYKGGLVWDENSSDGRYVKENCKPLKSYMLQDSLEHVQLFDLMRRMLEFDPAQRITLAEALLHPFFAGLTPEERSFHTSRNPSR
# [10] = molecular target: Casein kinase I isoform delta (Homo sapiens, UniProt P48730); assay: Inhibition of recombinant human full-length GST-tagged CSNK1D expressed in baculovirus expression system using FRET-labeled Ser/Thr 11 peptide as substrate measured after 1 hr in presence of ATP by Z'-lyte assay
# Chain of Casein kinase I isoform delta (P48730 whole entry, canonical isoform): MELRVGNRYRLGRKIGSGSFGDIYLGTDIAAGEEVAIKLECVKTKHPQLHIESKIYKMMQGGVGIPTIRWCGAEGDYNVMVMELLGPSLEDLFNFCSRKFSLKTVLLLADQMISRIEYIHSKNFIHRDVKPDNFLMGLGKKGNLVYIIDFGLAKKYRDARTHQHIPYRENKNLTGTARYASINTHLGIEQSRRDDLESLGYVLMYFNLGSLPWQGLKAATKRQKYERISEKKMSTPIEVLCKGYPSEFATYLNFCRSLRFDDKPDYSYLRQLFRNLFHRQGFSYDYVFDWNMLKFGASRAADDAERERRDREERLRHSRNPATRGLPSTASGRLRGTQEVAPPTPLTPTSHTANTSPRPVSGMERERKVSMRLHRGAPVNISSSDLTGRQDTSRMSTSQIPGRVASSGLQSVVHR
# [11] = molecular target: Casein kinase I isoform gamma-3 (Homo sapiens, UniProt Q9Y6M4); assay: Inhibition of recombinant human full-length GST-tagged CSNK1G3 expressed in baculovirus expression system using FRET-labeled Ser/Thr 05 peptide as substrate measured after 1 hr in presence of ATP by Z'-lyte assay
# Chain of Casein kinase I isoform gamma-3 (Q9Y6M4 whole entry, canonical isoform): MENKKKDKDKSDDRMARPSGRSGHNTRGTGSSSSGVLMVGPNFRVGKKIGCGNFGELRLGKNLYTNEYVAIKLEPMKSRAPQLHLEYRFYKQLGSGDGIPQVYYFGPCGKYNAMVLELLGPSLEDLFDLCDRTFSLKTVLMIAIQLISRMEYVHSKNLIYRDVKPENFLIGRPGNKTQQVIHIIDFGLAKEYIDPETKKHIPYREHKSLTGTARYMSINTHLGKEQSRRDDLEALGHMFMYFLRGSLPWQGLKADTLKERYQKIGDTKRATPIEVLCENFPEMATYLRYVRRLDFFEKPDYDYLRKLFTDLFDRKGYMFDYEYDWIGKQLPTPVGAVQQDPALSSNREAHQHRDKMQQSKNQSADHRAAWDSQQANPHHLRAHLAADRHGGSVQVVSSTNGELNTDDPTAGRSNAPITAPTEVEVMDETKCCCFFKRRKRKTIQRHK
# [12] = molecular target: Casein kinase II subunit alpha (Homo sapiens, UniProt P68400); assay: Inhibition of recombinant human full-length His-tagged CSNK2A1 expressed in baculovirus expression system using FRET-labeled Ser/Thr 11 peptide as substrate measured after 1 hr in presence of ATP by Z'-lyte assay
# [13] = molecular target: DNA-dependent protein kinase catalytic subunit (Homo sapiens, UniProt P78527); assay: Inhibition of recombinant human DNA-PK expressed in baculovirus expression system using serine/threonine-26 peptide as substrate incubated for 60 mins in presence of ATP by Z'-LYTE assay
# [14] = molecular target: Eukaryotic elongation factor 2 kinase (Homo sapiens, UniProt O00418); assay: Inhibition of recombinant human full length GST-tagged EEF2K expressed in Escherichia coli expression system using serine/threonine-24 peptide as substrate incubated for 60 mins in presence of ATP by Z'-LYTE assay
# Chain of Eukaryotic elongation factor 2 kinase (O00418 whole entry, the tested form may be a part): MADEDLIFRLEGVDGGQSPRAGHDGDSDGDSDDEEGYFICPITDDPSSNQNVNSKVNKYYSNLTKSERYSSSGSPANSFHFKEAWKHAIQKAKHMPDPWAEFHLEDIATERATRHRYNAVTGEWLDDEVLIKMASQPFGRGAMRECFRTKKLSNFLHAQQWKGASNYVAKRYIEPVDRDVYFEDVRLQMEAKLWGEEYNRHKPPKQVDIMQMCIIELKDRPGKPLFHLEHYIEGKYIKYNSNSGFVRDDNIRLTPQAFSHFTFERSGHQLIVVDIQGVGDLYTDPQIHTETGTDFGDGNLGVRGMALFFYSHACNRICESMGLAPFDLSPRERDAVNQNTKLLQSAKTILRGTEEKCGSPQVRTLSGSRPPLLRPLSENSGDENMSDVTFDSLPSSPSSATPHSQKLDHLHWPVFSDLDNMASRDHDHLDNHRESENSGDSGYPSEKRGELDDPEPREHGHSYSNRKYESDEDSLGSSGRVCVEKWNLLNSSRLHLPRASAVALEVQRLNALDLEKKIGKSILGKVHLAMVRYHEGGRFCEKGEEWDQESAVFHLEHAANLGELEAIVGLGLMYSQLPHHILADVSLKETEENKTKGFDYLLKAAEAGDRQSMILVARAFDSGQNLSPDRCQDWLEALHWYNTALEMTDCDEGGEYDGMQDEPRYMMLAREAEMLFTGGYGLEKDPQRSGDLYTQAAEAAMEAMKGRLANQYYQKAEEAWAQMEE
# [15] = molecular target: Epidermal growth factor receptor (Homo sapiens, UniProt P00533, L861Q); assay: Inhibition of human recombinant GST-tagged EGFR L861Q mutant cytoplasmic domain expressed in baculovirus expression system using tyrosine 4 peptide as substrate after 60 mins in presence of ATP FRET based Z'-LYTE assay
# [16] = molecular target: Receptor tyrosine-protein kinase erbB-2 (Homo sapiens, UniProt P04626); assay: Inhibition of human recombinant ERBB2 (537 to 636 residues) expressed in Escherichia coli using Tyr 06 as substrate after 1 hr in presence of ATP by Z'-LYTE assay
# [17] = molecular target: Homeodomain-interacting protein kinase 4 (Homo sapiens, UniProt Q8NE63); assay: Inhibition of recombinant full length human N-terminal GST-tagged HIPK4 expressed in baculovirus expression system using serine/threonine-18 peptide as substrate incubated for 60 mins in presence of ATP by Z'-LYTE assay
# [18] = molecular target: Insulin-like growth factor 1 receptor (Homo sapiens, UniProt P08069); assay: Inhibition of recombinant human His-tagged IGF1R expressed in baculovirus expression system using tyrosine 1 peptide as substrate incubated for 60 mins in presence of ATP by Z'-LYTE assay
# [19] = molecular target: Tyrosine-protein kinase JAK2 (Homo sapiens, UniProt O60674); assay: Inhibition of human recombinant GST tagged JAK2 catalytic domain expressed in baculovirus expression system using Tyr6 peptide as substrate measured after 1 hr in presence of ATP by Z'-LYTE assay
# [20] = molecular target: Dual specificity mitogen-activated protein kinase kinase 1 (Homo sapiens, UniProt Q02750); assay: Inhibition of recombinant full length human His-tagged MEK1 expressed in baculovirus expression system using serine/threonine-3 peptide as substrate incubated for 60 mins in presence of ATP by Z'-LYTE assay
# [21] = molecular target: MAP kinase-interacting serine/threonine-protein kinase 1 (Homo sapiens, UniProt Q9BUB5); assay: Inhibition of recombinant full length human GST-tagged MKNK1 expressed in insect cells using serine/threonine-7 peptide as substrate incubated for 60 mins in presence of ATP by Z'-LYTE assay
# [22] = molecular target: Serine/threonine-protein kinase Nek9 (Homo sapiens, UniProt Q8TD19); assay: Inhibition of recombinant human GST-tagged NEK9 catalytic domain (347 to 732 residues) expressed in baculovirus expression system using serine/threonine-7 peptide as substrate incubated for 60 mins in presence of ATP by Z'-LYTE assay
# [23] = molecular target: cAMP-dependent protein kinase catalytic subunit PRKX (Homo sapiens, UniProt P51817); assay: Inhibition of recombinant full length human GST-tagged PRKX expressed in baculovirus expression system using serine/threonine-1 peptide as substrate incubated for 60 mins in presence of ATP by Z'-LYTE assay
# Chain of cAMP-dependent protein kinase catalytic subunit PRKX (P51817 whole entry): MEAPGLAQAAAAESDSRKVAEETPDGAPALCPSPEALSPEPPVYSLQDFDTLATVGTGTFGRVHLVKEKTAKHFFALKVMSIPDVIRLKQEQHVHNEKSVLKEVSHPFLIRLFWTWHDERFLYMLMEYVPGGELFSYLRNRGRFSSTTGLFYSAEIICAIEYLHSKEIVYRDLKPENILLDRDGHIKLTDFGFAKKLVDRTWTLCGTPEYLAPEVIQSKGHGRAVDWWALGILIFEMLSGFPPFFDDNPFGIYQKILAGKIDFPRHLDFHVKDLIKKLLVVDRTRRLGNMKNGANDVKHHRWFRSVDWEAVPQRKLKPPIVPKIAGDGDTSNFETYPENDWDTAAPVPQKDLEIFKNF
# [24] = molecular target: Ribosomal protein S6 kinase alpha-2 (Homo sapiens, UniProt Q15349); assay: Inhibition of recombinant full length human GST-tagged RPS6KA2 expressed in insect expression system using Ser/Thr 06 peptide as substrate incubated for 60 mins in presence of ATP by Z'-LYTE assay
# [25] = molecular target: Ribosomal protein S6 kinase alpha-4 (Homo sapiens, UniProt O75676); assay: Inhibition of recombinant full length human GST-tagged RPS6KA4 expressed in baculovirus expression system using ser/Thr01 peptide as substrate incubated for 60 mins in presence of ATP by Z'-LYTE assay
# Chain of Ribosomal protein S6 kinase alpha-4 (O75676 whole entry): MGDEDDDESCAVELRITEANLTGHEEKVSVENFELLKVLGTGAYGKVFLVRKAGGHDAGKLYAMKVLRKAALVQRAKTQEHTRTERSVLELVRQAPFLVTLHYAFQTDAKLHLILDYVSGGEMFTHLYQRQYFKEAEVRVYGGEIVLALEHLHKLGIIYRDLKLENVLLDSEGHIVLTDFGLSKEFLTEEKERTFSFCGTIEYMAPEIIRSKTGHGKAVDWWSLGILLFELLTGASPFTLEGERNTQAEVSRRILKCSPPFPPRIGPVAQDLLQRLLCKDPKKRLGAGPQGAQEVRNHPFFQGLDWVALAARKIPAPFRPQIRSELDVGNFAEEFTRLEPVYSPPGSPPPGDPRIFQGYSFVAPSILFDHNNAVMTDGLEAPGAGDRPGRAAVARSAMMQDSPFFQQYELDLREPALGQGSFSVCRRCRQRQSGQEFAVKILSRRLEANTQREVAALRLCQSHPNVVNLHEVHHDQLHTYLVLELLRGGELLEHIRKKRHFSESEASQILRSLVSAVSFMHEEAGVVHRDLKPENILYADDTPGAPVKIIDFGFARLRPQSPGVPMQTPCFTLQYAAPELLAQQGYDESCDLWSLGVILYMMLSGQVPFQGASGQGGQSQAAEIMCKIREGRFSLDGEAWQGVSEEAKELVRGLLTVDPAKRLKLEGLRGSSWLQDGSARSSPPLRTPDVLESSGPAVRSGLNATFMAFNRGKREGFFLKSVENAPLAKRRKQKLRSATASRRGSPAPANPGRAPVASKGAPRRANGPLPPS
# [26] = molecular target: SRSF protein kinase 2 (Homo sapiens, UniProt P78362); assay: Inhibition of recombinant full length human GST-tagged SRPK2 expressed in baculovirus expression system using serine/threonine-07 peptide as substrate incubated for 60 mins in presence of ATP by Z'-LYTE assay
# Chain of Cytochrome P450 3A4 (P08684 whole entry): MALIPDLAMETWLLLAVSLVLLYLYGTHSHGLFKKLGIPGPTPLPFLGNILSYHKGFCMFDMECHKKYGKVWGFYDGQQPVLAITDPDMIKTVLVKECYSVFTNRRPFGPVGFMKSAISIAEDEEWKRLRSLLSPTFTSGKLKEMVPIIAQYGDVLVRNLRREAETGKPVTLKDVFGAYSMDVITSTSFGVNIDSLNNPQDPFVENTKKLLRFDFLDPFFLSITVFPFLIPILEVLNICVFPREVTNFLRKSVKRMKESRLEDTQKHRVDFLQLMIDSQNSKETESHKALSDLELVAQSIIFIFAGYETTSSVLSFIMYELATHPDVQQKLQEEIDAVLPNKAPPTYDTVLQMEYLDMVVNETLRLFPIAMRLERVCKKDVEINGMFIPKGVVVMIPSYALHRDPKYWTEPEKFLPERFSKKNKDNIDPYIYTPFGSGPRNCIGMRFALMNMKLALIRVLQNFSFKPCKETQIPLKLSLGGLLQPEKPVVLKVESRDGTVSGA
smiles,measurement,setting,value
C[C@@H]1C[C@H]1C(=O)N1CCN(c2cnc(C#N)c(-c3cnn(C)c3)n2)C[C@H]1C,bioavailability,[1],100%
same,IC50,[2],> 50 µM
same,inhibition,[3],6%
same,inhibition,[4],19%
same,inhibition,[5],10%
same,inhibition,[6],15%
same,inhibition,[7],0%
same,inhibition,[8],4%
same,IC50,[9],> 100 µM
same,IC50,[10],> 100 µM
same,IC50,[11],> 100 µM
same,IC50,[12],> 100 µM
same,IC50,[13],> 100 µM
same,IC50,[14],> 100 µM
same,IC50,[15],> 100 µM
same,IC50,[16],> 100 µM
same,IC50,[17],> 100 µM
same,IC50,[18],> 100 µM
same,IC50,[19],> 100 µM
same,IC50,[20],> 100 µM
same,IC50,[21],> 100 µM
same,IC50,[22],> 100 µM
same,IC50,[23],> 100 µM
same,IC50,[24],> 100 µM
same,IC50,[25],> 100 µM
same,IC50,[26],> 100 µM
